# US5405861A, “Triazole compounds and antifungal compositions thereof” (Takeda Chemical Industries, Co., Ltd., priority 1989, dated 1995)
# Where a name gives a salt, the structure may show the parent alone. Read-outs that look alike come from different tables or passages of the source.
# Legend:
# [1] = system: Candida albicans (IFO 0538); assay: Antifungal activity against Candida albicans, paper disc growth inhibition zone (Tables 5 and 6); type: cell-based; settings: 28° C., 2 days incubation; for zone of inhibition at 1000 µg/mL: 48 h, read-out: Inhibition zone diameter
# Experimental: The antifungal activities of the compounds (I) were evaluated by the following method: a sheet of filter paper disc (manufactured by Toyo Seisakusho, 8 mm in diameter) soaked in a 1000 μg/ml solution of a compound (I) in methanol was placed on an agar plate, which was incubated at 28° C. for 2 days, and the diameter of the growth inhibition zone around the filter paper disc was measured. The following culture media were used:
# A: yeast nitrogen base agar medium
# B: yeast nitrogen base agar medium (pH 7.0)
# Candida albicans = assay: Infection-preventing effect in experimental infection in mice, Method 1 (Table 7-1); type: in vivo, Crj:CDF1 mice; settings: Candida albicans, 168 h, given 0 and 2 hours after infection, survival 7 days after infection, total dose, read-out: ED50
# Experimental: Method 1 (Table 7-1): To 5-week-old Crj:CDF1 mice the minimum lethal dose of Candida albicans was inoculated intravenously. The test drug was given twice 0 and 2 hours after infection. The effectiveness of the drug was expressed in ED50 values calculated by the Reed and Muench method from the survival rate 7 days after infection. The ED50 values were calculated based on the total dose given on the two occasions.
# [2] = pH 7, B medium (yeast nitrogen base agar, pH 7.0)
# [3] = A medium (yeast nitrogen base agar)
SMILES,"zone of inhibition at 1000 µg/mL [1, 2]","ED50 (Candida albicans; sc, s.c.)",further results
"C[C@@H](SCc1cncn1C)[C@](O)(Cn1cncn1)c1ccc(F)cc1F (racemic) [Compound 29, (2RS,3RS)-2-(2,4-difluorophenyl)-3-(1-methylimidazol-5-yl)methylthio-1-(1H-1,2,4-triazol-1-yl)-2-butanol]",38 mm,0.71 mg/kg,
"C[C@@H](S)[C@](O)(Cn1cncn1)c1ccc(F)cc1F (racemic) [Compound 39, (2RS,3RS)-2-(2,4-difluorophenyl)-3-mercapto-1-(1H-1,2,4-triazol-1-yl)-2-butanol]",18 mm,0.19 mg/kg,"ED50 (Candida albicans; po, p.o.): 0.35 mg/kg"
"C[C@@H](SCCc1nccn1C)[C@](O)(Cn1cncn1)c1ccc(F)cc1F (racemic) [Compound 50, (2RS,3RS)-2-(2,4-difluorophenyl)-3-[2-(1-methylimidazol-2-yl)ethyl]thio-1-(1H-1,2,4-triazol-1-yl)-2-butanol]",22 mm,3.2 mg/kg,
"Cc1oc(=O)oc1CS[C@H](C)[C@](O)(Cn1cncn1)c1ccc(F)cc1F (racemic) [Compound 56, (2RS,3RS)-2-(2,4-difluorophenyl)-3-(5-methyl-2-oxo-1,3-dioxol-4-yl)methylthio-1-(1H-1,2,4-triazol-1-yl)-2-butanol]",30 mm,2 mg/kg,
"C[C@H](S)[C@](O)(Cn1cncn1)c1ccc(F)cc1F (racemic) [Compound 60, (2RS,3SR)-2-(2,4-difluorophenyl)-3-mercapto-1-(1H-1,2,4-triazol-1-yl)-2-butanol]",30 mm,> 4 mg/kg,
C[C@@H](SCCn1cncn1)[C@](O)(Cn1cncn1)c1ccc(F)cc1F (relative stereo) [13(hydrochloride)],25 mm,10 mg/kg,
C[C@@H](SCc1nccn1C)[C@](O)(Cn1cncn1)c1ccc(F)cc1F (relative stereo) [16(hydrochloride)],,,"ED50 (Candida albicans; po, p.o.): 0.71 mg/kg"
C[C@@H](SCc1cn2ccccc2n1)[C@](O)(Cn1cncn1)c1ccc(F)cc1F (relative stereo) [27(hydrochloride)],,3.2 mg/kg,
C[C@@H](SCc1nccn1CC(F)(F)C(F)F)[C@](O)(Cn1cncn1)c1ccc(F)cc1F (relative stereo) [30(hydrochloride)],,0.88 mg/kg,
C[C@@H](SCc1nccs1)[C@](O)(Cn1cncn1)c1ccc(F)cc1F (relative stereo) [38(hydrochloride)],,3.2 mg/kg,
C[C@@H](SCCn1cncn1)[C@](O)(Cn1cncn1)c1ccc(F)cc1F (relative stereo) [Compound 13],,,"zone of inhibition at 1000 µg/mL [1, 3]: 34 mm"
C[C@H]([C@](O)(Cn1cncn1)c1ccc(F)cc1F)S(=O)(=O)CCn1cncn1 (relative stereo) [Compound 14],,,"zone of inhibition at 1000 µg/mL [1, 3]: 22 mm"
C[C@@H](SCc1nccn1C)[C@](O)(Cn1cncn1)c1ccc(F)cc1F (relative stereo) [Compound 16],25 mm,0.63 mg/kg,
C[C@@H](SCCSCCn1cncn1)[C@](O)(Cn1cncn1)c1ccc(F)cc1F (relative stereo) [Compound 22],25 mm,,
C[C@@H](SCCSCCn1ccnc1)[C@](O)(Cn1cncn1)c1ccc(F)cc1F (relative stereo) [Compound 23],25 mm,,
C[C@@H](SCc1nc2c(s1)CCC2)[C@](O)(Cn1cncn1)c1ccc(F)cc1F (relative stereo) [Compound 25],40 mm,3.2 mg/kg,
Cc1nnc(S[C@H](C)[C@](O)(Cn2cncn2)c2ccc(F)cc2F)s1 (relative stereo) [Compound 26],45 mm,3.2 mg/kg,
C[C@@H](SCc1cn2ccccc2n1)[C@](O)(Cn1cncn1)c1ccc(F)cc1F (relative stereo) [Compound 27],45 mm,,
C[C@@H](SCc1cn(C)cn1)[C@](O)(Cn1cncn1)c1ccc(F)cc1F (relative stereo) [Compound 28],40 mm,0.65 mg/kg,
C[C@@H](SCc1nccn1CC(F)(F)C(F)F)[C@](O)(Cn1cncn1)c1ccc(F)cc1F (relative stereo) [Compound 30],40 mm,,
C[C@@H](SCc1ncnn1C)[C@](O)(Cn1cncn1)c1ccc(F)cc1F (relative stereo) [Compound 31],40 mm,0.71 mg/kg,
C[C@@H](SCc1ncn(C)n1)[C@](O)(Cn1cncn1)c1ccc(F)cc1F (relative stereo) [Compound 32],40 mm,3.2 mg/kg,
C[C@@H](SCc1nncn1C)[C@](O)(Cn1cncn1)c1ccc(F)cc1F (relative stereo) [Compound 33],20 mm,0.45 mg/kg,
CSc1nnc(CS[C@H](C)[C@](O)(Cn2cncn2)c2ccc(F)cc2F)n1C (relative stereo) [Compound 34],30 mm,3.2 mg/kg,
C[C@@H](SCc1ncc2n1CCC2)[C@](O)(Cn1cncn1)c1ccc(F)cc1F (relative stereo) [Compound 35],33 mm,0.71 mg/kg,
Cc1nc(CS[C@H](C)[C@](O)(Cn2cncn2)c2ccc(F)cc2F)sc1C (relative stereo) [Compound 36],45 mm,3.2 mg/kg,

SMILES,"zone of inhibition at 1000 µg/mL [1, 2]","ED50 (Candida albicans; sc, s.c.)",further results
Cc1csc(CS[C@H](C)[C@](O)(Cn2cncn2)c2ccc(F)cc2F)n1 (relative stereo) [Compound 37],45 mm,1.4 mg/kg,
C[C@@H](SCc1nccs1)[C@](O)(Cn1cncn1)c1ccc(F)cc1F (relative stereo) [Compound 38],47 mm,,
CC(=O)S[C@H](C)[C@](O)(Cn1cncn1)c1ccc(F)cc1F (relative stereo) [Compound 40],50 mm,0.35 mg/kg,
CCn1ccnc1CS[C@H](C)[C@](O)(Cn1cncn1)c1ccc(F)cc1F (relative stereo) [Compound 46],27 mm,0.7 mg/kg,
CC(C)n1ccnc1CS[C@H](C)[C@](O)(Cn1cncn1)c1ccc(F)cc1F (relative stereo) [Compound 47],25 mm,0.7 mg/kg,
C[C@@H](SCc1nccn1CCF)[C@](O)(Cn1cncn1)c1ccc(F)cc1F (relative stereo) [Compound 48],23 mm,0.77 mg/kg,
C[C@@H](SCc1nccn1CC(F)(F)F)[C@](O)(Cn1cncn1)c1ccc(F)cc1F (relative stereo) [Compound 49],25 mm,1 mg/kg,
C[C@@H](SCc1nccn1CC1CC1)[C@](O)(Cn1cncn1)c1ccc(F)cc1F (relative stereo) [Compound 51],28 mm,2 mg/kg,
Cc1nc(CS[C@H](C)[C@](O)(Cn2cncn2)c2ccc(F)cc2F)cs1 (relative stereo) [Compound 52],35 mm,2 mg/kg,
Cc1ncc(CS[C@H](C)[C@](O)(Cn2cncn2)c2ccc(F)cc2F)s1 (relative stereo) [Compound 53],35 mm,2 mg/kg,
C[C@@H](SCc1nccn1CC(F)F)[C@](O)(Cn1cncn1)c1ccc(F)cc1F (relative stereo) [Compound 54],25 mm,0.5 mg/kg,
C[C@@H](SCc1nccn1C1CC1)[C@](O)(Cn1cncn1)c1ccc(F)cc1F (relative stereo) [Compound 55],30 mm,0.5 mg/kg,
CC(=O)S[C@@H](C)[C@](O)(Cn1cncn1)c1ccc(F)cc1F (relative stereo) [Compound 61],30 mm,,
OC(CSCCSCCn1ccnc1)(Cn1cncn1)c1ccc(F)cc1F (centres unmarked) [Compound 7],,,"zone of inhibition at 1000 µg/mL [1, 3]: 18 mm"
OC(CSCCc1ccncc1)(Cn1cncn1)c1ccc(F)cc1F (centres unmarked) [Compound 8],,,"zone of inhibition at 1000 µg/mL [1, 3]: 25 mm"
CC(SCC(O)(Cn1cncn1)c1ccc(F)cc1F)c1ccncc1 (centres unmarked) [Compound 9],,,"zone of inhibition at 1000 µg/mL [1, 3]: 21 mm"
CC(SCC(O)(Cn1cncn1)c1ccc(F)cc1F)c1ccncc1 (centres unmarked) [Compound 11],,,"Inhibition zone diameter [1, 3]: 24 mm"
Cn1ccnc1CSCCSCC(O)(Cn1cncn1)c1ccc(F)cc1F (centres unmarked) [Compound 17],25 mm,,
Cn1ccnc1SCCSCC(O)(Cn1cncn1)c1ccc(F)cc1F (centres unmarked) [Compound 18],25 mm,,
OC(CSCCSCc1ccncc1)(Cn1cncn1)c1ccc(F)cc1F (centres unmarked) [Compound 19],30 mm,,
Cn1nnnc1SCCSCC(O)(Cn1cncn1)c1ccc(F)cc1F (centres unmarked) [Compound 20],25 mm,,
OC(CSCCSCCn1cncn1)(Cn1cncn1)c1ccc(F)cc1F (centres unmarked) [Compound 21],20 mm,,
OC(CSCCSc1ccncc1)(Cn1cncn1)c1ccc(F)cc1F (centres unmarked) [Compound 24],25 mm,,
C[C@@H](SCc1nncn1C)[C@](O)(Cn1cncn1)c1ccc(F)cc1F [Compound 95],28 mm,,
CCn1ccnc1CS[C@H](C)[C@](O)(Cn1cncn1)c1ccc(F)cc1F [Compound 101],38 mm,,
CC(C)n1ccnc1CS[C@H](C)[C@](O)(Cn1cncn1)c1ccc(F)cc1F [Compound 102],35 mm,,
